In PubChem BioAssay AID328 (DTP/NCI, 2004):
Values joined by “and” are separate entries in the source; they are usually repeats but may differ in a detail not shown here. Equal entries are not always repeated. Toxic doses and inconclusive results are not listed.

Test system: BDF1 mice, P388 leukemia ip, median survival T/C
Test: NCI In Vivo Anticancer Drug Screen. Data for tumor model P388 Leukemia (intraperitoneal) in B6D2F1 (BDF1) mice
Conditions: endpoint: median survival time, higher = longer survival
In short: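 Antitumour effect was judged in vivo: survival in drug-treated mice, normalised to that of vehicle-dosed controls, gives the reported T/C.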

[1] = dose: 25.0 mg/kg/injection, schedule: Q01DX009 (ip), vehicle: Klucel (hydroxypropylcellulose) (HPC)
[2] = dose: 50.0 mg/kg/injection, schedule: Q01DX009 (ip), vehicle: Klucel (hydroxypropylcellulose) (HPC)
[3] = dose: 100.0 mg/kg/injection, schedule: Q01DX009 (ip), vehicle: saline
[4] = dose: 100.0 mg/kg/injection, schedule: Q04DX003 (ip), vehicle: saline
[5] = dose: 200.0 mg/kg/injection, schedule: Q01DX009 (ip), vehicle: saline
[6] = dose: 200.0 mg/kg/injection, schedule: Q04DX003 (ip), vehicle: saline
[7] = dose: 400.0 mg/kg/injection, schedule: Q01DX009 (ip), vehicle: saline
[8] = dose: 400.0 mg/kg/injection, schedule: Q04DX003 (ip), vehicle: saline
[9] = dose: 50.0 mg/kg/injection, schedule: Q01DX009 (ip), vehicle: saline with Tween-80
[10] = dose: 200.0 mg/kg/injection, schedule: Q01DX009 (ip), vehicle: saline with Tween-80
[11] = dose: 100.0 mg/kg/injection, schedule: Q04DX003 (ip), vehicle: saline with Tween-80
[12] = dose: 200.0 mg/kg/injection, schedule: Q04DX003 (ip), vehicle: saline with Tween-80
[13] = dose: 400.0 mg/kg/injection, schedule: Q04DX003 (ip), vehicle: saline with Tween-80

Which T/C (dose: 100.0 mg/kg/injection, schedule: Q01DX001 (ip), vehicle: Klucel (hydroxypropylcellulose) (HPC)) does the source give for `N#Cc1cccc(/C=C/C=C\c2ccc([N+](=O)[O-])cc2)c1` here?
The T/C was 95 % of control.

What about the T/C (dose: 200.0 mg/kg/injection, schedule: Q01DX001 (ip), vehicle: Klucel (hydroxypropylcellulose) (HPC)) of the same compound?
The T/C was 90 % of control.

And the T/C (dose: 400.0 mg/kg/injection, schedule: Q01DX001 (ip), vehicle: Klucel (hydroxypropylcellulose) (HPC))?
The T/C was 90 % of control.

What does the source list for `CC(C)(C)C1CC[N-]CC1.CC(C)(C)C1CC[N-]CC1.[Cl][Pt+2][Cl]`?
T/C [1]: 104 % of control; T/C [2]: 106 % of control; T/C (dose: 100.0 mg/kg/injection, schedule: Q01DX009 (ip), vehicle: Klucel (hydroxypropylcellulose) (HPC)): 117 % of control; T/C (dose: 200.0 mg/kg/injection, schedule: Q01DX009 (ip), vehicle: Klucel (hydroxypropylcellulose) (HPC)): 107 % of control

What does the source list for `CN(C)CCNc1ccc([N+](=O)[O-])c2sc3ccccc3c(=O)c12`?
T/C (dose: 7.5 mg/kg/injection, schedule: Q01DX009 (ip), vehicle: Klucel (hydroxypropylcellulose) (HPC)): 107 % of control; T/C (dose: 11.0 mg/kg/injection, schedule: Q01DX009 (ip), vehicle: Klucel (hydroxypropylcellulose) (HPC)): 115 % of control; T/C (dose: 12.5 mg/kg/injection, schedule: Q04DX003 (ip), vehicle: Klucel (hydroxypropylcellulose) (HPC)): 108 % of control; T/C (dose: 17.0 mg/kg/injection, schedule: Q01DX009 (ip), vehicle: Klucel (hydroxypropylcellulose) (HPC)): 108 % of control; T/C [1]: 157 % of control and 166 % of control; T/C (dose: 25.0 mg/kg/injection, schedule: Q04DX003 (ip), vehicle: Klucel (hydroxypropylcellulose) (HPC)): 116 % of control; T/C (dose: 37.0 mg/kg/injection, schedule: Q01DX009 (ip), vehicle: Klucel (hydroxypropylcellulose) (HPC)): 92 % of control and 108 % of control; T/C [2]: 91 % of control; T/C (dose: 50.0 mg/kg/injection, schedule: Q04DX003 (ip), vehicle: Klucel (hydroxypropylcellulose) (HPC)): 162 % of control

Which results are given for `O=C(Oc1ccc([N+](=O)[O-])cc1)c1ccc(C[P+](c2ccccc2)(c2ccccc2)c2ccccc2)cc1`?
T/C [3]: 109 % of control; T/C [4]: 104 % of control; T/C [5]: 100 % of control; T/C [6]: 100 % of control; T/C [7]: 100 % of control; T/C [8]: 95 % of control

How did the T/C (dose: 25.0 mg/kg/injection, schedule: Q01DX001 (ip), vehicle: saline sonified) turn out when `CSC(=S)NNC(=O)C1CCCCC1` was run?
The T/C was 100 % of control.

And the T/C (dose: 50.0 mg/kg/injection, schedule: Q01DX001 (ip), vehicle: saline sonified)?
Its T/C is 104 % of control.

And the T/C (dose: 100.0 mg/kg/injection, schedule: Q01DX001 (ip), vehicle: saline sonified)?
The T/C was 100 % of control.

What does the source list for `CCC(C(=O)O)c1ccccc1` (centres undefined)?
T/C [9]: 90 % of control; T/C [10]: 109 % of control

With `CCCC(O)C1CCCCC1O` (centres undefined) as the compound, how does the T/C [11] read?
Its T/C is 100 % of control.

What about the T/C [12] of the same compound?
The T/C was 100 % of control.

And the T/C [13]?
Its T/C is 100 % of control.

With `C/C=C1\CN2CCc3c([nH]c4ccccc34)C2CC1Cc1nccc2c1[nH]c1ccccc12` (centres undefined) as the compound, how does the T/C (dose: 1.0 mg/kg/injection, schedule: Q04DX003 (ip), vehicle: saline) read?
Its T/C is 98 % of control.

And the T/C (dose: 2.0 mg/kg/injection, schedule: Q04DX003 (ip), vehicle: saline)?
The T/C was 102 % of control.

And the T/C (dose: 4.0 mg/kg/injection, schedule: Q04DX003 (ip), vehicle: saline)?
Its T/C is 102 % of control.

What about the T/C (dose: 6.0 mg/kg/injection, schedule: Q04DX003 (ip), vehicle: saline) of the same compound?
The T/C was 107 % of control.

And the T/C (dose: 12.0 mg/kg/injection, schedule: Q04DX003 (ip), vehicle: saline)?
Its T/C is 103 % of control.

What about the T/C (dose: 24.0 mg/kg/injection, schedule: Q04DX003 (ip), vehicle: saline) of the same compound?
Its T/C is 100 % of control.

And the T/C (dose: 48.0 mg/kg/injection, schedule: Q04DX003 (ip), vehicle: saline)?
Its T/C is 100 % of control.

How did the T/C (dose: 12.5 mg/kg/injection, schedule: Q01DX009 (sc), vehicle: steriod suspending solution) turn out when `C=C(CCC(C(=O)O)C1CCC2(C)C3=C(CCC12C)C1(C)CCC(O)C(C)(C)C1CC3)C(C)C` (centres undefined) was run?
The T/C was 100 % of control.

And the T/C (dose: 25.0 mg/kg/injection, schedule: Q01DX009 (sc), vehicle: steriod suspending solution)?
Its T/C is 99 % of control.

And the T/C (dose: 50.0 mg/kg/injection, schedule: Q01DX009 (ip), vehicle: steriod suspending solution)?
The T/C was 87 % of control.

What about the T/C (dose: 50.0 mg/kg/injection, schedule: Q01DX009 (sc), vehicle: steriod suspending solution) of the same compound?
The T/C was 98 % of control.

And the T/C (dose: 100.0 mg/kg/injection, schedule: Q01DX009 (ip), vehicle: steriod suspending solution)?
The T/C was 92 % of control.

And the T/C (dose: 100.0 mg/kg/injection, schedule: Q01DX009 (sc), vehicle: steriod suspending solution)?
Its T/C is 101 % of control and 106 % of control.

What about the T/C (dose: 200.0 mg/kg/injection, schedule: Q01DX009 (sc), vehicle: steriod suspending solution) of the same compound?
The T/C was 91 % of control.

What does the source list for `CCC[CH2][Sn]([CH2]CCC)([O]C(C)=O)[O]C(C)=O`?
T/C (dose: 3.12 mg/kg/injection, schedule: Q01DX009 (ip), vehicle: saline with Tween-80): 114 % of control; T/C (dose: 6.12 mg/kg/injection, schedule: Q01DX009 (ip), vehicle: saline): 154 % of control; T/C (dose: 6.25 mg/kg/injection, schedule: Q01DX009 (ip), vehicle: saline with Tween-80): 151 % of control; T/C (dose: 12.5 mg/kg/injection, schedule: Q01DX009 (ip), vehicle: saline with Tween-80): 86 % of control; T/C (dose: 12.5 mg/kg/injection, schedule: Q01DX009 (ip), vehicle: saline): 156 % of control

`O=C(O)C(O)C(O)C(=O)O` (centres undefined) was tested. Which T/C [3] did it give?
Its T/C is 100 % of control.

What about the T/C [4] of the same compound?
Its T/C is 91 % of control.

And the T/C [5]?
The T/C was 110 % of control.

What about the T/C [6] of the same compound?
The T/C was 100 % of control.

What about the T/C [7] of the same compound?
Its T/C is 100 % of control.

And the T/C [8]?
Its T/C is 104 % of control.

For `COC(=O)C(CC(C)C)NC(=O)C(Cc1ccc(Oc2ccc([N+](=O)[O-])cc2[N+](=O)[O-])cc1)NC=O` (centres undefined), which T/C (dose: 25.0 mg/kg/injection, schedule: Q04DX003 (ip), vehicle: water) is on record?
Its T/C is 95 % of control.

And the T/C (dose: 300.0 mg/kg/injection, schedule: Q04DX003 (ip), vehicle: water)?
Its T/C is 99 % of control.

What about the T/C (dose: 400.0 mg/kg/injection, schedule: Q04DX003 (ip), vehicle: water) of the same compound?
The T/C was 96 % of control and 98 % of control and 112 % of control.

How did the T/C (dose: 12.5 mg/kg/injection, schedule: Q01DX001 (ip), vehicle: Klucel (hydroxypropylcellulose) (HPC)) turn out when `[O-]/C(CCl)=N\[n+]1c2c(nc3ccccc31)-c1cccc3cccc-2c13` was run?
The T/C was 105 % of control.

What about the T/C (dose: 25.0 mg/kg/injection, schedule: Q01DX001 (ip), vehicle: Klucel (hydroxypropylcellulose) (HPC)) of the same compound?
The T/C was 102 % of control.

Which results are given for `CC(=O)[O][Hg][c]1s[c]([Hg][O]C(C)=O)[c]([Hg][O]C(C)=O)[c]1[Hg][O]C(C)=O`?
T/C (dose: 1.0 mg/kg/injection, schedule: Q01DX009 (ip), vehicle: Klucel (hydroxypropylcellulose) (HPC)): 101 % of control; T/C (dose: 2.0 mg/kg/injection, schedule: Q01DX009 (ip), vehicle: Klucel (hydroxypropylcellulose) (HPC)): 100 % of control; T/C (dose: 2.6 mg/kg/injection, schedule: Q01DX009 (ip), vehicle: saline): 118 % of control; T/C (dose: 3.8 mg/kg/injection, schedule: Q04DX003 (ip), vehicle: saline): 95 % of control; T/C (dose: 4.0 mg/kg/injection, schedule: Q01DX009 (ip), vehicle: Klucel (hydroxypropylcellulose) (HPC)): 102 % of control; T/C (dose: 4.0 mg/kg/injection, schedule: Q01DX009 (ip), vehicle: saline): 118 % of control; T/C (dose: 6.0 mg/kg/injection, schedule: Q01DX009 (ip), vehicle: Klucel (hydroxypropylcellulose) (HPC)): 101 % of control; T/C (dose: 6.0 mg/kg/injection, schedule: Q01DX009 (ip), vehicle: saline): 118 % of control; T/C (dose: 7.5 mg/kg/injection, schedule: Q04DX003 (ip), vehicle: saline): 100 % of control; T/C (dose: 9.0 mg/kg/injection, schedule: Q01DX009 (ip), vehicle: Klucel (hydroxypropylcellulose) (HPC)): 103 % of control; T/C (dose: 9.0 mg/kg/injection, schedule: Q01DX009 (ip), vehicle: saline): 118 % of control

With `CCC(C(O)c1cccs1)C(O)(C(F)(F)F)C(F)(F)F` (centres undefined) as the compound, how does the T/C [11] read?
Its T/C is 95 % of control.

What about the T/C [12] of the same compound?
The T/C was 100 % of control.

How did the T/C [11] turn out when `Cc1ccc(C(=O)CCCCCCCCC(=O)c2ccc(C)cc2)cc1` was run?
Its T/C is 100 % of control.

What about the T/C [12] of the same compound?
Its T/C is 90 % of control.

And the T/C [13]?
The T/C was 100 % of control.

How did the T/C [9] turn out when `OCC1OC(c2ccc(OCc3ccccc3)cc2OCc2ccccc2)C(O)C1O` (centres undefined) was run?
Its T/C is 105 % of control.

And the T/C (dose: 100.0 mg/kg/injection, schedule: Q01DX009 (ip), vehicle: saline with Tween-80)?
Its T/C is 92 % of control.

What about the T/C [10] of the same compound?
Its T/C is 92 % of control.
